Source: PMC12193374, “Exploring Carboxamide Derivatives as Promising Anticancer Agents: Design, In Vitro Evaluation, and Mechanistic Insights” (International Journal of Molecular Sciences, 2025)

Experiments:
Format in all cases: cell-based
[1] = test system: HCT-116 human colorectal carcinoma cells; assay: MTT antiproliferative assay, HCT-116; details: for IC50: Homo sapiens, HCT-116, MTT, 72 h treatment, mean ± SD, read-out: IC50 (µM) ± S.D. HCT-116 Colon Cancer; for Selectivity index (IC50 normal fibroblast/IC50 HCT-116): fibroblasts/colon cancer, first value of the SI cell; for Selectivity for HCT-116 over MCF-7: ratio of MCF-7 to HCT-116 IC50
Protocol: (§1) The proliferation inhibitory activities of the carboxamide derivatives 4-16 were tested in vitro using the MTT assay against the human cancer MCF-7, K-562, and HCT-116 cell lines in addition to normal human cells (dermal fibroblasts) to evaluate their putative selective cytotoxic activities. […] The human colorectal carcinoma (HCT-116), human breast adenocarcinoma (MCF-7), human chronic myelogenous leukemia (K-562), and human dermal fibroblast normal cell lines were purchased from were purchased from the American Type Culture Collection (ATCC) (Manassas, VA, USA) and stored in liquid nitrogen. Cells were passaged twice weekly upon reaching 70–80% confluency, and only low passage numbers (≤ 10) were used in all experiments. Mycoplasma contamination was monitored using the Lonza MycoAlert™ mycoplasma detection kit. Cells were sub-cultured and maintained with appropriate media: RPMI-1640 medium (Buffalo, New York, USA) was used to grow MCF-7, K-562 and HCT-116 cancer cells, while fibroblast cells were cultured in Iscove’s Modified Dulbecco’s medium (IMDM) (EuroClone S.p.A., Pero, MI, Italy). Both media were supplemented with 10% (v/v) heat-inactivated fetal bovine serum (FBS) (Gibco, CA, USA), 2 mM of L-Glutamine, 100 units/mL of Penicillin, and 100 μg/mL of Streptomycin (EuroClone, Italy). Cells were maintained at 37 °C in a humidified incubator with 5% CO2 (NuAire, Plymouth, MN, USA). The MTT colorimetric assay utilized in this study was previously described and adapted from Mosmann. The MTT regent [3-(4,5-dimethylthiazol-2-yl)-2,5-diphenyl tetrazolium bromide] was employed to evaluate the antiproliferative activities of carboxamides 4-16 against MCF-7, K-562, HCT-116, and dermal normal fibroblast cell lines. Cells (6–8 × 10^3 per well, 180 µL) were seeded into 96-well plates (Corning, New York, USA) and allowed to adhere overnight at 37 °C in a humidified 5% CO₂ incubator. Fresh top stock solutions of the test compounds (10 mM in DMSO) were then freshly prepared, followed by serial dilutions in the appropriate culture media before being added to the seeded cells. […] Initial screening for potential antiproliferative activity was carried out using two concentration points (10 µM and 50 µM) in triplicate over a 72-hour incubation period. […] Following 72 h of exposure, MTT solution (2 mg/mL in PBS, 50 µL per well) was added, and plates were incubated for an additional 4 h. The supernatant in each well was then removed, and the resulting formazan crystals were solubilized by adding DMSO (150 µL per well). Absorbance, measured as the optical density (OD), was recorded at 570 nm using a microplate reader (Thermo Fisher Scientific, Waltham, MA, USA). The detected signal intensity corresponds to metabolic activity, which directly correlates with the viable cell number. All experiments were performed in triplicate, and the results are presented as the mean ± standard deviation (SD). The IC50 values for antiproliferative activity were calculated using nonlinear regression analysis in GraphPad Prism software (GraphPad Prism version 9.0.0 for Windows, GraphPad Software, San Diego, California USA). Additionally, a two-way ANOVA test was conducted to analyze significant variations in IC50 values, with a significant level set at α = 0.05.

[2] = test system: MCF-7 human breast adenocarcinoma cells; assay: MTT antiproliferative assay, MCF-7; details: for IC50: Homo sapiens, MCF7, 72 h, read-out: IC50 (µM) ± S.D. MCF-7 Breast Cancer; for Selectivity index (IC50 normal fibroblast/IC50 MCF-7): fibroblasts/breast cancer, second value of the SI cell
Protocol: as §1

[3] = test system: K-562 human chronic myelogenous leukemia cells; assay: MTT antiproliferative assay, K-562; details: for IC50: Homo sapiens, K562, 72 h, MTT, 72 h treatment, mean ± SD, read-out: IC50 (µM) ± S.D. K-562 Leukemia; for Selectivity index (IC50 normal fibroblast/IC50 K-562): fibroblasts/leukemia, third value of the SI cell
Protocol: as §1

[4] = test system: human dermal fibroblast normal cell line; assay: MTT assay, normal dermal fibroblasts; details: 72 h treatment, read-out: IC50 (µM) ± S.D. Dermal Fibroblast Normal
Protocol: as §1

Row | Structure (SMILES) | IC50 [1] [µM] | IC50 ([2]; MTT, 72 h treatment, mean ± SD) [µM] | IC50 (µM) ± S.D. MCF-7 Breast Cancer ([2]; MTT, 72 h treatment, mean ± SD) | IC50 [3] [µM] | Selectivity index (IC50 normal fibroblast/IC50 HCT-116) [1] | IC50 [4] [µM] | Selectivity index (IC50 normal fibroblast/IC50 MCF-7) [2] | Selectivity index (IC50 normal fibroblast/IC50 K-562) [3] | Selectivity for HCT-116 over MCF-7 [1] [fold]
1 | O=C(Nc1ccc([N+](=O)[O-])cc1)c1cc2ccccc2[nH]1 [Compound 8, N-(4-Nitrophenyl)-1H-indole-2-carboxamide] | 32 ± 0.83 | > 100 | exceptional resistance | > 100 | > 3.1 | > 100 |  |  | 
2 | O=C(Nc1cccc2c1C(=O)c1ccccc1C2=O)c1cc2ccccc2[nH]1 [Compound 12, N-(9,10-Dihydro-9,10-dioxoanthracen-1-yl)-1H-indole-2-carboxamide] | 3.98 ± 0.06 |  |  | 0.33 ± 0.02 | > 25.1 | > 100 | > 11.0 | > 303 | 
3 | O=C(Nc1ccc(F)cc1)c1cc2ccccc2[nH]1 [Compound 6, N-(4-Florophenyl)-1H-indole-2-carboxamide] | 25.4 ± 0.38 | 80.8 ± 4.04 |  | 84.6 ± 4.23 | > 3.9 | > 100 | > 1.2 | > 1.2 | 

Continued by falling IC50 [1], values first:

Row | IC50 [1] [µM] | IC50 ([2]; MTT, 72 h treatment, mean ± SD) [µM] | IC50 (µM) ± S.D. MCF-7 Breast Cancer ([2]; MTT, 72 h treatment, mean ± SD) | IC50 [3] [µM] | Structure (SMILES) | Selectivity index (IC50 normal fibroblast/IC50 HCT-116) [1] | IC50 [4] [µM] | Selectivity index (IC50 normal fibroblast/IC50 MCF-7) [2] | Selectivity index (IC50 normal fibroblast/IC50 K-562) [3] | Selectivity for HCT-116 over MCF-7 [1] [fold]
4 | 3.94 ± 0.03 | 10.6 ± 0.53 |  | 0.61 ± 0.03 | O=C(Nc1ccc(Cl)cc1)c1cc2ccccc2[nH]1 [Compound 4, N-(4-Chlorophenyl)-1H-indole-2-carboxamide] | > 25.4 | > 100 | > 9.4 | > 164 | 
5 | 3.11 ± 0.049 | 33.1 ± 1.66 |  | > 100 | O=C(Nc1cccc2c1C(=O)c1ccccc1C2=O)c1ccco1 [Compound 16, N-(9,10-Dihydro-9,10-dioxoanthracen-1-yl)-2-furamide] | > 32.2 | > 100 | > 3.0 |  | 10.6
6 | 2.64 ± 0.07 | 7.16 ± 0.36 |  |  | O=C(Nc1ccc2c(c1)C(=O)c1ccccc1C2=O)c1cc2ccccc2[nH]1 [Compound 14, N-(9,10-Dihydro-9,10-dioxoanthracen-2-yl)-1H-indole-2-carboxamide] | > 37.9 | > 100 | > 14.0 | > 164 | 
7 | 1.01 ± 0.04 | 70.3 ± 3.52 |  | > 100 | O=C(Nc1ccccn1)c1cc2ccccc2[nH]1 [Compound 10, N-(Pyridin-2-yl)-1H-indole-2-carboxamide] | > 99.4 | > 100 | > 1.4 |  | 69.6
